Calls of active or inactive are those of the source.

The target in one test is Large T antigen (Simian virus 40, UniProt P03070). In kind it is functional, Betapolyomavirus macacae.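 Also: Confirmatory-stage PubChem screen for compounds that inhibit SV40 T antigen.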
The target of test [1] is T1, Rac GTPase-activating protein 1 (Homo sapiens, UniProt Q9H0H5).
T1 sequence (Q9H0H5 whole entry): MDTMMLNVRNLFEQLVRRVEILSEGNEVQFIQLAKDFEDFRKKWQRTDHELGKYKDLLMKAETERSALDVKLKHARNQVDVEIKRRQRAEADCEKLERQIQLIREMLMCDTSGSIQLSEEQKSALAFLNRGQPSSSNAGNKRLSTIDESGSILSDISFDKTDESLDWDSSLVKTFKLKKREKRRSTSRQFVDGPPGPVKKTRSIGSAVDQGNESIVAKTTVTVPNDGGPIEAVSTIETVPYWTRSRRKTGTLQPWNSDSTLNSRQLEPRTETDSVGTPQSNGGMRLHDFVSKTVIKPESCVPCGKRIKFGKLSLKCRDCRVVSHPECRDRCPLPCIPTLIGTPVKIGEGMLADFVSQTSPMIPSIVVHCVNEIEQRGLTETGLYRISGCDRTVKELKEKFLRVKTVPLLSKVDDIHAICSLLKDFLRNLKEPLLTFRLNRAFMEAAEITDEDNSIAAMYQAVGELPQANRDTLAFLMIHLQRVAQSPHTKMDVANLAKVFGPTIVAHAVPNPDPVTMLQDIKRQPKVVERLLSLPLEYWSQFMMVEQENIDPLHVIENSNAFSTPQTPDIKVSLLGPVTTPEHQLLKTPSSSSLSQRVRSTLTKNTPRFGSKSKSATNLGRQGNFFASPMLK
Put plainly: blockers of MgcRacGAP-driven Rac1 GTP hydrolysis – biochemical, ADP Hunter fluorescence, primary and confirmatory, confirmation (AID 624330). In kind it is functional.

The test system of a further test is H9c2. As to the kind of experiment: cells. It is filed as functional, cell-based. To be noted: Rattus norvegicus, H9c2, Myocardium.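 Also: confirmatory concentration-response retest of ultra-high-throughput screening hits for modulation of myocardial damage; cell death induced by hydrogen peroxide oxidative stress; compound pretreatment for 60 min then peroxide exposure for 2 h; potency is for protecting the cells against peroxide damage rather than for killing them.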
The nature of test [2]: viability of uninfected HEp-2 cells – cell-based, HTS, cytotoxicity control for RSV inhibitor project, dose response (AID 2410). In kind it is functional. The note with it: human respiratory syncytial virus.
The subject of test [3] is BJ. Put plainly: BJ-TERT fibroblast viability loss – cell-based, RAS-independent, luminescence, dose response (AID 1933). In kind it is functional. The note with it: Homo sapiens.
Test [4] relates to BJ. Put plainly: cells. In kind it is functional, cell-based. The note with it: Homo sapiens.
Test [5] has as its system BJ. Put plainly: BJ-TERT-LT-ST fibroblast viability loss – cell-based, RAS-independent, luminescence, dose response (AID 1935).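 Also: BJ fibroblasts immortalized with TERT plus LT and ST oncogenes.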 It is filed as functional. To be noted: Homo sapiens.
Test [6] is described as follows: DRD fibroblast viability loss – cell-based, non-viral oncogenic, luminescence, dose response (AID 1934). In kind it is functional. To be noted: Homo sapiens.
A further test concerns the target Fatty acid synthase (Homo sapiens, UniProt P49327). As to the kind of experiment: inhibition of human FAS-TE enzyme activity – biochemical, kinetic fluorescence intensity, dose response (AID 624326).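 Also: rate of fluorescence rise from hydrolysis of a fluorogenic O-methyl fluorescein ester substrate.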 It is filed as functional.
For test [7], the target named is T2, Replicative DNA helicase DnaB (Mycobacterium tuberculosis, UniProt P9WMR3).
T2 sequence (P9WMR3 whole entry): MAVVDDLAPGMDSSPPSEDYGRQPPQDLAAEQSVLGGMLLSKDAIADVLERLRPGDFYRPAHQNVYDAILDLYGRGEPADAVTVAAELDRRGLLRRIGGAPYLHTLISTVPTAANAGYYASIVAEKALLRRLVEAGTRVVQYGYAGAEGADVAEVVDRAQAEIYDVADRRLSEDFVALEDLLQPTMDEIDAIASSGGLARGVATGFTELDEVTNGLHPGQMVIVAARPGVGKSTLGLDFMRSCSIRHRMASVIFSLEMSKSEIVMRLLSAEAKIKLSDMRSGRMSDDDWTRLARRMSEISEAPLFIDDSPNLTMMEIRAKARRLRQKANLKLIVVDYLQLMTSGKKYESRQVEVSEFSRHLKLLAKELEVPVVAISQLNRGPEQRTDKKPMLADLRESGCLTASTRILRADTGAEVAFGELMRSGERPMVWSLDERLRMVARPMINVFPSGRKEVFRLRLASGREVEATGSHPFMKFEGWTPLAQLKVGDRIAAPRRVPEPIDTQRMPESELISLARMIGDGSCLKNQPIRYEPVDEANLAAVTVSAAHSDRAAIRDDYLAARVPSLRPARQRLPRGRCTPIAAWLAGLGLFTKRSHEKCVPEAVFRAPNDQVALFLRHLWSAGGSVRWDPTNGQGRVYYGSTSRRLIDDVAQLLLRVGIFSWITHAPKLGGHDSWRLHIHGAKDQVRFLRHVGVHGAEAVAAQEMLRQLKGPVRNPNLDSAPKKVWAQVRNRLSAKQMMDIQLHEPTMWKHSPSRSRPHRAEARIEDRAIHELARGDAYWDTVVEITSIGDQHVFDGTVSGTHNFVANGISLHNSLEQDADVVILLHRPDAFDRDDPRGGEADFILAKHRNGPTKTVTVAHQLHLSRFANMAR
As to the kind of experiment: DnaB intein splicing inhibitors, dose response, biochemical, cell-free fluorescence (AID 449749). It is filed as functional.

The target of another test is T3, Protein RecA (Mycobacterium tuberculosis, UniProt P9WHJ3).
T3 sequence (P9WHJ3 whole entry): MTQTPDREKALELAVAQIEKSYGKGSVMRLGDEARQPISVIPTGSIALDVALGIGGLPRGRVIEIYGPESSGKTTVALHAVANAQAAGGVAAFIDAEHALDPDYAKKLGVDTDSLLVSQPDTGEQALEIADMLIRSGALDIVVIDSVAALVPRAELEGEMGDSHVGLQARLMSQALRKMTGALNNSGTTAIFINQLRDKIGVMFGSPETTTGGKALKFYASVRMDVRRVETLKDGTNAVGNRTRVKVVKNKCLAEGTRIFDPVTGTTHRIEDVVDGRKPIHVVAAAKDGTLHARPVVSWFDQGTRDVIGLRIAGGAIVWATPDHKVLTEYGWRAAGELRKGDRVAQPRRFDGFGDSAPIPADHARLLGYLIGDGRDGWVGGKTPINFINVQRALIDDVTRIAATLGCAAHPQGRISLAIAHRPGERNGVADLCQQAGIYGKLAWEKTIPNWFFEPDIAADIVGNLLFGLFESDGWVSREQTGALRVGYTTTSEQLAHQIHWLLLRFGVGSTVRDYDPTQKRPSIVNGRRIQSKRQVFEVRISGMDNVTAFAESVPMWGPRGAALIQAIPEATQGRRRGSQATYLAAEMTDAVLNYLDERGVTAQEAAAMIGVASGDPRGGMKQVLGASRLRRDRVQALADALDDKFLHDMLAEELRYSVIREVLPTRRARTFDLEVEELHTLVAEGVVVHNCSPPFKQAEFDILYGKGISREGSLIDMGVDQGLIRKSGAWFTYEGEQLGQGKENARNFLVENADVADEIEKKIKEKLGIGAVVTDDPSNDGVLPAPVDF
Put plainly: Fluorescence Cell-Free Homogeneous Dose Retest to Identify Inhibitors of RecA-Intein Splicing Activity. [Related pubchem assays (depositor defined):AID2097, AID2223, AID489010, AID492950]. In kind it is functional.

A short description of test [8]: intracellular Trypanosoma cruzi inhibitors in host cells – cell-based, plate reader, cherry-pick samples, set 3, dose response (AID 651818).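 Also: compounds incubated with infected cells for about four days.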 It is filed as functional.
Test [9] can be described thus: P. falciparum Dd2 growth inhibitors, dose response, SYBR Green, cherry-picked samples (AID 1159567). It is filed as functional, cell-based.
The target of test [10] is FAD-linked sulfhydryl oxidase ALR (Homo sapiens, UniProt P55789). Put plainly: ALR-catalysed DTT oxidation blockers – biochemical, H2O2 detection, luminescence, cherry-pick, dose response (AID 493248).
Chain of FAD-linked sulfhydryl oxidase ALR (P55789 whole entry): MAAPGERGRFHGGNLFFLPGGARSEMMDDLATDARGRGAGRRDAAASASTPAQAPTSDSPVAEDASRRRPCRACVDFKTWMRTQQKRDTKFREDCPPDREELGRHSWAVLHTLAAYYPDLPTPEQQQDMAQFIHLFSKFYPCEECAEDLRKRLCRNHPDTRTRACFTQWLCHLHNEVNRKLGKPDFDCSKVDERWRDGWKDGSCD

Chain of Large T antigen (P03070 whole entry): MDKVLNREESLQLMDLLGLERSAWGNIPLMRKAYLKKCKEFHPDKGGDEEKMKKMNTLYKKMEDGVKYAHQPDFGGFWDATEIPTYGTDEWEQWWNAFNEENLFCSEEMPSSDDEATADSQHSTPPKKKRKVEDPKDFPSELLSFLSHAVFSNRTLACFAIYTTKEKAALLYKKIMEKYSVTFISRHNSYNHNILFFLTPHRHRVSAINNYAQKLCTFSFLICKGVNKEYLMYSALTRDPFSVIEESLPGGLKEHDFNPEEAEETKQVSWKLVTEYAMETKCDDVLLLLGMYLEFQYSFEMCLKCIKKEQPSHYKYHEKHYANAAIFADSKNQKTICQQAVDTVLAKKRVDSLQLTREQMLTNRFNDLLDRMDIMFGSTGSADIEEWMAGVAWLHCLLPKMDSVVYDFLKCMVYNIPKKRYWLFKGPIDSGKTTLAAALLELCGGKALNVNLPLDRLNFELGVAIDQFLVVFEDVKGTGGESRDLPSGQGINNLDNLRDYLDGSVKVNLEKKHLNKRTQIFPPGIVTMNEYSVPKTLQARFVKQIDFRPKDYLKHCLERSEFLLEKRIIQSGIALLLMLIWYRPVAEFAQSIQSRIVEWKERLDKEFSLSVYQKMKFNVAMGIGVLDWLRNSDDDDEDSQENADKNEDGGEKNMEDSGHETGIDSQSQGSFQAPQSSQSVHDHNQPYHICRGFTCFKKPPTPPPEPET
Chain of Fatty acid synthase (P49327 whole entry): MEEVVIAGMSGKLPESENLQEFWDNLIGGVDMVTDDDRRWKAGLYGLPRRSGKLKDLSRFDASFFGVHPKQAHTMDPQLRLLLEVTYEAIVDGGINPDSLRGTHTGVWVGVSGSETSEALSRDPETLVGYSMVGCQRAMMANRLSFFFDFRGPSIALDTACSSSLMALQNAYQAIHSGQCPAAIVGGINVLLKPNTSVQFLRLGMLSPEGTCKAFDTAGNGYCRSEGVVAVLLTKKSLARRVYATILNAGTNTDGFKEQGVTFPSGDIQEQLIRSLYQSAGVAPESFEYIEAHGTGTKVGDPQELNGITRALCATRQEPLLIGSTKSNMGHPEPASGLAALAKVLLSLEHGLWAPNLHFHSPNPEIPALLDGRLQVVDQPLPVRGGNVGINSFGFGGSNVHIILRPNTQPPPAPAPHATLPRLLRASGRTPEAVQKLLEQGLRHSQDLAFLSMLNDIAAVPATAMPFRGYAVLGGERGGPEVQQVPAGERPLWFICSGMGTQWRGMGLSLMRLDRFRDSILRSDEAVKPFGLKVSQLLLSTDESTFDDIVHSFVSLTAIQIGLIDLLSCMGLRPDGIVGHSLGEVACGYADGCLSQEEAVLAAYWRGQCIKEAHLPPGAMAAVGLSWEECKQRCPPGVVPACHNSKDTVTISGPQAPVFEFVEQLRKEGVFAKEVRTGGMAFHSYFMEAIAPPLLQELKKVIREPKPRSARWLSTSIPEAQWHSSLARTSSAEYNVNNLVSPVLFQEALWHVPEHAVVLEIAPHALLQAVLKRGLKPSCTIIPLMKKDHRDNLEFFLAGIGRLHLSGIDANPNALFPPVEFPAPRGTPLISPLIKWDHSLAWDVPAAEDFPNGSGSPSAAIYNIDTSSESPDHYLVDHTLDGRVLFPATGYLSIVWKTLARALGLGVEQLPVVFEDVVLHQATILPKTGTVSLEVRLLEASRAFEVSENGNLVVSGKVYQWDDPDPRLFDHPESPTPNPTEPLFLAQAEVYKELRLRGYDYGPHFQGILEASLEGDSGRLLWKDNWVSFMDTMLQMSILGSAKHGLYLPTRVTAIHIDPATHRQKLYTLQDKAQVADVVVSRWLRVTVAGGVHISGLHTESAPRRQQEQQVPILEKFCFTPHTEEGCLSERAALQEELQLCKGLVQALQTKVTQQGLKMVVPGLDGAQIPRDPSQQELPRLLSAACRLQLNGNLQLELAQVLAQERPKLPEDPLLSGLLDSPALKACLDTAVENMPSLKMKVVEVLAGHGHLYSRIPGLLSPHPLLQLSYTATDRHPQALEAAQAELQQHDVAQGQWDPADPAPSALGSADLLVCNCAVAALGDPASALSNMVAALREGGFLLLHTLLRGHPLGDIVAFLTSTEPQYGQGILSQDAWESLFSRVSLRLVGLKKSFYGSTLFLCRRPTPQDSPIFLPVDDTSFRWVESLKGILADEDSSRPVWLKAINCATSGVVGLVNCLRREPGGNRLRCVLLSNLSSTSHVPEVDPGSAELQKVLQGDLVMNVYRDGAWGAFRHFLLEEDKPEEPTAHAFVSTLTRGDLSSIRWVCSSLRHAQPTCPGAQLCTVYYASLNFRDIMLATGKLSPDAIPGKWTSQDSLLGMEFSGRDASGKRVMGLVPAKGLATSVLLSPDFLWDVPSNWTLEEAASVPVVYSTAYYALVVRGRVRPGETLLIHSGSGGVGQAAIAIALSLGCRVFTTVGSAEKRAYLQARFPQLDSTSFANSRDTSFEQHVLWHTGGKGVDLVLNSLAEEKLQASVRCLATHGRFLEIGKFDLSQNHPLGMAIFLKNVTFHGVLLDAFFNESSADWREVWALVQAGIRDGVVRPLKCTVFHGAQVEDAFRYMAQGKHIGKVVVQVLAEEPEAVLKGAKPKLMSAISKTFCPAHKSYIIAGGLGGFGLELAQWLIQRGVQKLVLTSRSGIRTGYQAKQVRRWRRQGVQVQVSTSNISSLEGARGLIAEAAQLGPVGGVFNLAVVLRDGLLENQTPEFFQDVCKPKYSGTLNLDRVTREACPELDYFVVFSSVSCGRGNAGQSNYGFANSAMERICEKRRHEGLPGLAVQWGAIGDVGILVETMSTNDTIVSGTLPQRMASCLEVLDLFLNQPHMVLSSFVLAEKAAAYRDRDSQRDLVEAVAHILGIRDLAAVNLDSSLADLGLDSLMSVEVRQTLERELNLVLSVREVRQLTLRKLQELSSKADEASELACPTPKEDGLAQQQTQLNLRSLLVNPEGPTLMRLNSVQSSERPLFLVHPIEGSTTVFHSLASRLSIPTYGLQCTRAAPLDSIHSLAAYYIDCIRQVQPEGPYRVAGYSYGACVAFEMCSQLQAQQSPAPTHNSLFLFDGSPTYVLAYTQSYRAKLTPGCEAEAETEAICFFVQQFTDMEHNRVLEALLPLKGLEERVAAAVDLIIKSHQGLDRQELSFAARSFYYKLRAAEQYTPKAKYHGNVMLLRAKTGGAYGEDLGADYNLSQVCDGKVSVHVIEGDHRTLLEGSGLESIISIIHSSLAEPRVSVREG

`O=c1cc(-c2ccc(O)c(O)c2)oc2cc(O)c(C3OC(CO)C(O)C(O)C3O)c(O)c12` (configuration not stated): the figures for the IC50 (at Large T antigen; in [1]) were 5.23 µM (active) and 42.9 µM (active), respectively. Turning to `O=C(NCc1ccco1)c1cc(-c2cccnc2)nc2ccc(Cl)cc12`, the IC50 in the test with H9c2 is > 79 µM (inactive). Turning to `c1ccc(-c2nn3c(Cn4nnc5ccccc54)nnc3s2)cc1`, the IC50 in the test “cells” was > 25 µM (active). `COc1ccc2nc(NC(=O)c3ccccc3[N+](=O)[O-])sc2c1`: the CC50 in [2] was 45.6 µM (active). For the same compound, the IC50 in the test “cells” is 9.33 µM (active). `CCCCCn1c(=O)c(C(=O)NCc2ccccn2)c(O)c2ccccc21`: the IC50 in the test with H9c2 is 5.88 µM (active). Consider `CCO/C(O)=C1/C(C)=NC(SC)=C(C#N)C1CC(C)C` (configuration not stated), for which the EC50 in the test on BJ [3] was 7.78 µM (active); in the test on BJ [4], 35 µM (inconclusive); in the test with BJ [5] it was 6.28 µM (inconclusive); in test [6], 2.97 µM (active). In the same order, the values of `COc1ccc(C(C(=O)NC2CCCCC2)N(C(=O)CCl)c2ccccc2Cl)cc1` (configuration not stated) are 0.566 µM (inconclusive), > 150 µM (not active), > 150 µM (not active) and 4.62 µM (inconclusive). In the case of `Cc1nc(N2CCN(c3ccccn3)CC2)c2c(C)c(C(=O)Nc3ccc(F)cc3)sc2n1`, the IC50 in the test with H9c2 was > 79 µM (inactive). `COc1cc(C(=O)NCCCNc2nc3cc(C)cc(C)c3cc2C#N)cc(OC)c1OC`: the IC50 in the test on H9c2 was > 79 µM (inactive).

With `Cc1cc(C)c(S(=O)(=O)N2CCN(C(=O)c3cc(O)nc4ccccc34)CC2)c(C)c1`, in the test with H9c2, the IC50 is > 79 µM (inactive).

Consider `CC(C)(C)OC(=O)NCCCC[C@H](NC(=O)c1[nH]cnc1C(=O)NCC(=O)OCc1ccccc1)C(=O)OC(C)(C)C`, for which the IC50 on Fatty acid synthase was 0.16 µM (active).

Turning to `COc1ccc(C(=O)Nc2ccc(O)c3ccccc23)cc1`, the IC50 at Large T antigen was 30.8 µM (active). Also, the AC50 in test [7] was 1.22 µM (active). Further, the EC50 at Protein RecA is 0.0744 µM (active).

As to `CCC(Oc1ccccc1)C(=O)Nc1ccccc1C(=O)N1CCCCC1` (configuration not stated), in the test on H9c2, the IC50 is 23.8 µM (active).

Take `COc1cc(NC(=O)c2ccc(-c3cn[nH]c3)c3ccoc23)cc(OC)c1OC`: the IC50 in the test on H9c2 was > 79 µM (inactive). Consider `C[C@H]1CN([C@@H](C)CO)C(=O)c2cc(NS(=O)(=O)c3ccccc3)ccc2O[C@H]1CN(C)Cc1ccc(Cl)c(Cl)c1`, for which, in test [8], the AC50 is 5.12 µM (active).

As to `C[C@@H]1CN([C@H](C)CO)C(=O)Cc2cc(NC(=O)Cc3cn(C)c4ccccc34)ccc2O[C@H]1CN(C)Cc1ccc(Cl)c(Cl)c1`, the AC50 in test [8] was 3.78 µM (active).

Take `C[C@H](CO)N1C[C@H](C)[C@H](CN(C)Cc2ccc(C(F)(F)F)cc2)Oc2ccc(NC(=O)Nc3ccc4c(c3)OCO4)cc2CC1=O`: the AC50 in test [8] was 5.85 µM (active). For the compound `C[C@@H]1CN([C@H](C)CO)C(=O)Cc2cc(NC(=O)Nc3ccc(C(F)(F)F)cc3)ccc2O[C@@H]1CN(C)S(=O)(=O)c1ccc(F)cc1`, in [8], the concentration at half-maximal activity (AC50) was 7.08 µM (active). Still for that read-out and setting: the figure for `C[C@@H]1CN([C@H](C)CO)C(=O)c2cccc(NC(=O)NC3CCCCC3)c2O[C@H]1CN(C)Cc1ccc(C(F)(F)F)cc1` is 1.86 µM (active). Still for that read-out and setting: the figure for `C[C@@H]1CN([C@H](C)CO)C(=O)Cc2cc(NC(=O)Nc3ccc4c(c3)OCO4)ccc2O[C@@H]1CN(C)Cc1ccc(Cl)c(Cl)c1` is 3.71 µM (active); for `C[C@H](CO)N1C[C@H](C)[C@H](CN(C)CC2CCCCC2)Oc2c(NC(=O)c3nc4ccccc4s3)cccc2C1=O` it is 3.31 µM (active).

In the case of `C[C@@H]1CN([C@@H](C)CO)C(=O)Cc2cc(NC(=O)Nc3ccc(C(F)(F)F)cc3)ccc2O[C@@H]1CN(C)S(=O)(=O)c1ccccc1`, in test [8], the AC50 is 3.88 µM (active). With `CO[C@@H]1CN(C)C(=O)c2ccc(NC(=O)Nc3ccc(F)cc3)cc2OC[C@@H](C)N(C(=O)c2ccc(F)cc2)C[C@H]1C`, the AC50 in [9] is 8.03 µM (active).

As to `CCN(CC)S(=O)(=O)c1ccc(N/N=C/c2ccc(O)cc2)nc1`, the IC50 was 11.5 µM (active) on Large T antigen and 31.5 µM (active) in test [1].

As for `COc1cc(/C=N\NC(=O)CNC(=O)c2cccc([N+](=O)[O-])c2)ccc1O`, the results for the IC50 (on Large T antigen; in test [1]) were 3.75 µM (active) and 16.5 µM (active), respectively. The AC50 in [10] was 2.41 µM (active).

On to `COc1ccc(C(=O)NCC(=O)N/N=C/c2c(C)[nH]c3ccccc23)cc1OC`, for which the IC50 in “cells” is 7.07 µM (active). The same measure, in the same setting: the figure for `CC(=N)/C(C#N)=C(/O)COc1ncnc2ccccc12` is 1.77 µM (active). Take `O=C(Nc1ccc(F)cc1)N1CC(=O)N2[C@H](C1)[C@@H](c1ccc(C#Cc3ccc(F)cc3)cc1)[C@@H]2CO`: the AC50 in test [9] is 4.49 µM (active). Still for that read-out and setting: the figure for `CO[C@H]1CN(C)C(=O)c2ccc(NS(=O)(=O)CC(F)(F)F)cc2OC[C@@H](C)N(Cc2nccs2)C[C@H]1C` is > 39 µM (inactive).

One may read the IC50 as the point on the concentration scale where inhibition reaches its midpoint. A word on the CC50: it is the concentration that lowers cell viability or growth by half. What is called EC50 is the concentration needed to bring the measured effect to its halfway point. As usually defined, the AC50 is the midpoint of the concentration-response curve, whichever way the signal moves.
